Test systems include SK-MEL-2; NCI-H23; OVCAR-3; CCRF-CEM; KM12; ACHN; LOX IMVI; RXF 393; HT-29; NCI/ADR-RES; NCI-H460; SR; OVCAR-5; HCT-15; HOP-62; Malme-3M; K562; PC-3; SN12C; HCC 2998.
What all share (assay): inhibition of tumour cell growth, NCI panel, 48 h

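Assay format: 96-well plates, 48-hour exposure. GI50 is the concentration that inhibits growth by half.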 Activity calls are given as the source filed them. No stated cut-off is given here; in the data, active = GI50 up to about 1.1 µM and inactive = higher.

As for `CCn1c2ccccc2c2nnc(NCCCO)nc21`, the GI50 with SK-MEL-2, in the assay with NCI-H23, with OVCAR-3, in the assay on CCRF-CEM, in the assay with KM12 and with ACHN was > 100 µM (inactive) each time. Moreover, the GI50 with LOX IMVI is > 100 µM (inactive); with RXF 393 it was 57.9 µM (inactive); in the assay on HT-29, > 100 µM (inactive); with NCI/ADR-RES, > 100 µM (inactive); with NCI-H460 it was > 100 µM (inactive); with SR, 92.5 µM (inactive). In addition, the GI50 in the assay with OVCAR-5 was > 100 µM (inactive); in the assay on HCT-15 it was greater than 100 µM; in the assay on HOP-62 it was > 100 µM (inactive); in the assay with Malme-3M, > 100 µM (inactive); in the assay with K562 it was > 100 µM (inactive); in the assay on PC-3 it was > 100 µM (inactive). The GI50 with SN12C is > 100 µM (inactive).

Consider `COc1cc(C2=N/C(=C/c3cccs3)C(=O)O2)cc(OC)c1OC`, for which the GI50 in the assay on SK-MEL-2, in the assay with NCI-H23, in the assay on OVCAR-3, in the assay with CCRF-CEM, in the assay on KM12 and in the assay with ACHN was > 100 µM (inactive) throughout. Also, the GI50 with LOX IMVI, with RXF 393, in the assay on HCC 2998, in the assay on HT-29, in the assay with NCI-H460 and with SR was > 100 µM (inactive) each time. Also, the GI50 in the assay with OVCAR-5 is > 100 µM (inactive); in the assay with HCT-15 it was greater than 100 µM; with HOP-62, > 100 µM (inactive); with Malme-3M, > 100 µM (inactive); in the assay on K562 it was > 100 µM (inactive); in the assay on PC-3, > 100 µM (inactive). Besides, in the assay with SN12C, the GI50 was > 100 µM (inactive).

Regarding `COc1c(N2CCCCC2)c2c(=O)c3ccccc3oc2c2cc(C)oc12`, the GI50 in the assay with SK-MEL-2 is 15.9 µM (inactive); with NCI-H23, 18.5 µM (inactive); in the assay on OVCAR-3, 18.8 µM (inactive); with CCRF-CEM it was 8.63 µM (inactive); with KM12 it was 16.5 µM (inactive); in the assay on ACHN, 5.6 µM (inactive). For the same molecule, the GI50 in the assay with LOX IMVI is 14 µM (inactive); with RXF 393 it was 15.6 µM (inactive); in the assay with HCC 2998 it was 18.5 µM (inactive); in the assay with HT-29, 3.87 µM (inactive); with NCI/ADR-RES, 15.3 µM (inactive); with NCI-H460, 7.78 µM (inactive). The GI50 in the assay with OVCAR-5 is 23.5 µM (inactive); in the assay on HCT-15, 16.7 µM; in the assay on HOP-62, 9.91 µM (inactive); with Malme-3M, 19.3 µM (inactive); with K562, 6.1 µM (inactive); in the assay with PC-3, 12.7 µM (inactive). Moreover, the GI50 with SN12C is 24.8 µM (inactive).

In the case of `C1CN2CCNCCN(CCN1)CC2`, the GI50 in the assay with SK-MEL-2 is > 100 µM (inactive); in the assay on NCI-H23, > 100 µM (inactive); in the assay with OVCAR-3, > 100 µM (inactive); in the assay with CCRF-CEM, 3.9 µM (inactive); with KM12, > 100 µM (inactive); in the assay on ACHN it was > 100 µM (inactive). Moreover, the GI50 with LOX IMVI, with RXF 393, with HT-29, with NCI/ADR-RES, with NCI-H460 and with SR was > 100 µM (inactive) each time. Moreover, the GI50 with OVCAR-5 was > 100 µM (inactive); in the assay on HCT-15 it was greater than 100 µM; in the assay on HOP-62, > 100 µM (inactive); in the assay with Malme-3M it was > 100 µM (inactive); in the assay on K562, > 100 µM (inactive); with PC-3, > 100 µM (inactive). The GI50 with SN12C is > 100 µM (inactive).

Consider `CCOC(=O)Cc1ccc(Nc2nc3ccccc3nc2C(=O)OCC)cc1`, for which the GI50 in the assay with SK-MEL-2 is 94 µM (inactive); in the assay with NCI-H23 it was 47.5 µM (inactive); with OVCAR-3 it was > 100 µM (inactive); in the assay on CCRF-CEM, > 100 µM (inactive); in the assay on KM12 it was > 100 µM (inactive); in the assay on ACHN it was 53.5 µM (inactive). In addition, the GI50 with LOX IMVI was > 100 µM (inactive); in the assay on RXF 393, 24 µM (inactive); in the assay on HT-29, > 100 µM (inactive); in the assay with NCI/ADR-RES, 50.7 µM (inactive); in the assay on NCI-H460 it was 44.6 µM (inactive); in the assay on SR, > 100 µM (inactive). The GI50 with OVCAR-5 is > 100 µM (inactive); with HCT-15, greater than 100 µM; with HOP-62 it was 38.3 µM (inactive); with Malme-3M, 52.1 µM (inactive); in the assay on PC-3, 62.5 µM (inactive); in the assay with SN12C it was > 100 µM (inactive).

In the case of `C=CCN1C(=O)C[C@H](Cc2ccccc2)NC(=O)C[C@H](Cc2ccccc2)N(CC=C)C(=O)C[C@H](Cc2ccccc2)NC(=O)C[C@@H]1Cc1ccccc1`, the GI50 is 6.73 µM (inactive) in the assay with SK-MEL-2; > 100 µM (inactive) in the assay with NCI-H23; 87.7 µM (inactive) with OVCAR-3; 4.76 µM (inactive) in the assay on CCRF-CEM; 26 µM (inactive) in the assay on KM12; 3.99 µM (inactive) with LOX IMVI. Moreover, the GI50 in the assay with RXF 393 is 7.14 µM (inactive); in the assay with HT-29, 5.19 µM (inactive); in the assay on NCI/ADR-RES, 4.37 µM (inactive); in the assay with NCI-H460, 5.42 µM (inactive); with SR, 5.16 µM (inactive); in the assay with OVCAR-5 it was > 100 µM (inactive). In addition, the GI50 is 12.2 µM in the assay on HCT-15; 51.8 µM (inactive) in the assay on HOP-62; 3.81 µM (inactive) in the assay on Malme-3M; 3.45 µM (inactive) in the assay with K562; 3.1 µM (inactive) in the assay on PC-3; 5.7 µM (inactive) with SN12C.

`CC(C)=CCC/C(C)=C/CC/C(C)=C/CC/C(C)=C/C=C/C=C(\C)CC/C=C(\C)CC/C=C(\C)CCC=C(C)C`: the GI50 in the assay with SK-MEL-2 is > 100 µM (inactive); in the assay with NCI-H23, 68.2 µM (inactive); in the assay on OVCAR-3 it was > 100 µM (inactive); in the assay with CCRF-CEM, 24.6 µM (inactive); in the assay with KM12, 31.8 µM (inactive); in the assay with ACHN, 31.5 µM (inactive). Moreover, the GI50 is 21.2 µM (inactive) in the assay on LOX IMVI; > 100 µM (inactive) in the assay on RXF 393; > 100 µM (inactive) with HCC 2998; > 100 µM (inactive) in the assay with HT-29; 50.7 µM (inactive) with NCI/ADR-RES; 34.8 µM (inactive) in the assay on NCI-H460. Further, the GI50 in the assay with OVCAR-5 was > 100 µM (inactive); with HCT-15, greater than 100 µM; in the assay on HOP-62, 72.6 µM (inactive); in the assay with Malme-3M it was > 77.1 µM (inactive); in the assay with K562, 17.2 µM (inactive); in the assay on PC-3, > 81.5 µM (inactive). Moreover, in the assay on SN12C, the GI50 is > 39.4 µM (inactive).

Regarding `CCC#CCCCCCCCCC(F)C(=O)O` (stereo not drawn), the GI50 in the assay with SK-MEL-2, with NCI-H23, in the assay on OVCAR-3, in the assay on CCRF-CEM, in the assay on KM12 and in the assay on ACHN was > 100 µM (inactive) each time. For the same molecule, the GI50 in the assay with LOX IMVI, with RXF 393, with HCC 2998, with HT-29, in the assay on NCI/ADR-RES and with OVCAR-5 was > 100 µM (inactive) throughout. Also, the GI50 was greater than 100 µM with HCT-15; > 100 µM (inactive) in the assay with HOP-62; > 100 µM (inactive) in the assay with Malme-3M; > 100 µM (inactive) with K562; > 100 µM (inactive) in the assay on PC-3; > 100 µM (inactive) in the assay with SN12C.

Regarding `COc1cc(N(CCC#N)CCC#N)ccc1/C=N\NC(=O)c1ccc(C)cc1`, the GI50 was 17.3 µM (inactive) with SK-MEL-2; > 100 µM (inactive) with NCI-H23; 75.2 µM (inactive) with OVCAR-3; > 100 µM (inactive) with CCRF-CEM; > 100 µM (inactive) in the assay on KM12; > 100 µM (inactive) in the assay on ACHN. For the same molecule, the GI50 in the assay on LOX IMVI, in the assay with RXF 393, in the assay on HT-29, with NCI/ADR-RES, in the assay on NCI-H460 and in the assay on OVCAR-5 was > 100 µM (inactive) each time. The GI50 is greater than 100 µM in the assay on HCT-15; > 100 µM (inactive) with HOP-62; > 100 µM (inactive) in the assay with Malme-3M; > 100 µM (inactive) in the assay with K562; 17.3 µM (inactive) in the assay with PC-3; > 100 µM (inactive) in the assay with SN12C.

For the molecule `CSC(SC)=C(C#N)C(=O)Nc1cccc(Cl)c1`, the GI50 is > 100 µM (inactive) in the assay with SK-MEL-2; 33.1 µM (inactive) in the assay on CCRF-CEM; > 100 µM (inactive) in the assay with KM12; 75.2 µM (inactive) in the assay with ACHN; 93.3 µM (inactive) with LOX IMVI; > 100 µM (inactive) with RXF 393. Also, the GI50 was 75.5 µM (inactive) with HCC 2998; 46.7 µM (inactive) with HT-29; 32.5 µM (inactive) with NCI/ADR-RES; 59.8 µM (inactive) with NCI-H460; 98.2 µM (inactive) in the assay with OVCAR-5; 38.4 µM in the assay with HCT-15. In addition, the GI50 in the assay on HOP-62 is 67.9 µM (inactive); with Malme-3M, 79.4 µM (inactive); in the assay with K562, 32.4 µM (inactive); in the assay on PC-3, 50.4 µM (inactive); in the assay with SN12C, > 100 µM (inactive).

As to `NC(=O)CNC(=O)[C@@H]1CC(OCCC(=O)O)CN1C(=O)C1CCCN1C(=O)OCc1ccccc1` (stereo partly drawn), the GI50 in the assay on SK-MEL-2, in the assay on NCI-H23, with OVCAR-3, in the assay with CCRF-CEM, with KM12 and in the assay on ACHN was > 100 µM (inactive) throughout. Moreover, the GI50 with LOX IMVI, in the assay with RXF 393, with HT-29, with NCI/ADR-RES, with NCI-H460 and in the assay on SR was > 100 µM (inactive) throughout. The GI50 was > 100 µM (inactive) with OVCAR-5; greater than 100 µM in the assay on HCT-15; > 100 µM (inactive) with HOP-62; > 100 µM (inactive) with Malme-3M; > 100 µM (inactive) in the assay on K562; > 100 µM (inactive) in the assay with PC-3. Also, the GI50 with SN12C is > 100 µM (inactive).
